# Measured values published in PubChem BioAssay (NCI).
# Where “and” joins values, the source holds several entries; their conditions need not be identical. Equal entries are not always repeated.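 All cell lines were grown in 96-well plates and treated with compound for 48 hours. GI50: concentration for 50% inhibition of growth. The concentration for full growth arrest is given as TGI.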
# Assays:
# Experiment in all cases: NCI tumour cell line growth inhibition, 48 h
# [1] = system: MALME-3M melanoma
# [2] = system: LOX IMVI melanoma
# [3] = system: SF-539 CNS
# [4] = system: RPMI-8226 leukemia
# [5] = system: NCI-H226 lung
# [6] = system: SNB-75 CNS
# [7] = system: NCI/ADR-RES ovarian
# [8] = system: OVCAR-4 ovarian
# [9] = system: NCI-H23 lung
# [10] = system: M14 melanoma
Structure (SMILES),GI50 [1] [µM],TGI [1] [µM],GI50 [2] [µM],TGI [2] [µM],GI50 [3],TGI [3],GI50 [4],TGI [4] [µM],GI50 [5] [µM],TGI [5],GI50 [6],TGI [6],GI50 [7],TGI [7],GI50 [8],TGI [8],GI50 [9],TGI [9],GI50 [10],TGI [10]
Cc1cc2cc(Oc3ccnc(Nc4cccc(CS(=O)(=O)NCCN(C)C)c4)n3)ccc2[nH]1,2.96,10.5,3.51,15,3.05 µM,13.3 µM,2.99 µM,11.5,7.25,22.1 µM,1.31 µM,4.89 µM,17.9 µM,43.6 µM,9.11 µM,22.3 µM,8.8 µM,23.6 µM,,
O=C(/C=C/c1ccccc1)c1ccc(O)c(CN2CCN(c3cc4c(cc3F)c(=O)c(C(=O)O)cn4C3CC3)CC2)c1,0.769,15.6,,,0.465 µM,> 100 µM,0.275 µM,6.37,3.54,> 100 µM,0.378 µM,9.78 µM,7.86 µM,> 100 µM,16.7 µM,> 100 µM,2.2 µM,16.9 µM,1 µM,> 100 µM
Cc1cc(C)c(S(=O)(=O)Oc2ccccc2[N+](=O)[O-])c(C)c1,1.26,> 100,3.33,> 100,2.16 µM,> 23.1 µM,2.54 µM,> 100,10.6,> 100 µM,1.82 µM,7.04 µM,1.01 µM,> 27.4 µM,> 25.1 µM,> 100 µM,4.69 µM,> 100 µM,0.976 µM,> 26.6 µM
CCOc1ccc2c(-c3ccnc(Nc4cccc(C(F)(F)F)c4)n3)cnn2n1,> 25,> 25,12.3,> 25,4.92 µM,9.63 µM,> 25 µM,> 25,> 25,> 25 µM,9.81 µM,> 25 µM,9.04 µM,> 25 µM,9.46 µM,> 25 µM,6.97 µM,> 20 µM,> 25 µM,> 25 µM
S=C1SC2(CCCCCC2)NC2=C1CCCCC2,,> 100,,> 100,,> 100 µM,,69.3,,52.4 µM,,81.8 µM,,> 100 µM,,> 100 µM,,> 100 µM,,> 100 µM
CCCCC/C=C1\CCC(CN2CCOCC2)C1=O (stereo unspecified),,18.9,,10.5,,30 µM,,3.02,,33.5 µM,,33.5 µM,,54.6 µM,,48 µM,,29.8 µM,,16.9 µM
C=C(C)[C@@H]1CC[C@]2(c3ncc(C)o3)CC[C@]3(C)[C@H](CC[C@@H]4[C@@](C)(CCC#N)[C@H](C(=C)C)CC[C@]43C)[C@@H]12,2.65,9.75,1.95,4.14,9.05 µM,21.7 µM,2.44 µM,6.9,3.28,14.5 µM,2.44 µM,16.6 µM,3.33 µM,11.9 µM,4.38 µM,17.3 µM,6.54 µM,21.4 µM,7.8 µM,24.2 µM
CC(=O)OC1C(O)COC(Oc2c(C)c3c4c(c2O)[C@@H](C)CC[C@@H]4[C@@H](C)C[C@H]3C=C(C)C)C1O (stereo partly specified),15.3,30.1,18,35.4,,,13.3 µM,33.2,24.5,64.8 µM,,,15.4 µM,32.5 µM,16.8 µM,47.1 µM,17.9 µM,37.5 µM,14.6 µM,31.5 µM
COc1cccc2c1C(=O)c1c(O)c3c(c(O)c1C2=O)C[C@@](O)(C(=O)COC(=O)c1cccnc1)C[C@@H]3OC1CC(N)C(O)C(C)O1 (stereo partly specified),0.115,0.353,0.0443,0.372,0.0744 µM,0.673 µM,0.114 µM,0.714,,,0.084 µM,0.534 µM,3.95 µM,> 100 µM,0.28 µM,3.48 µM,0.178 µM,1.02 µM,0.17 µM,1.06 µM
COc1cc2c(c(OC)c1OC)C(=O)c1c-2n(CCCN)c(=O)c2cc([N+](=O)[O-])ccc12,,,,,0.55 µM,1.16 µM,1.21 µM,3.32,19,40.1 µM,1.41 µM,3.31 µM,2.03 µM,9.98 µM,0.372 µM,1.47 µM,1.52 µM,3.81 µM,1.35 µM,2.82 µM
CCCN(CCC)c1ccc(C=O)c(OC)c1,18.7,64.6,25.8,> 100,26 µM,> 100 µM,58.6 µM,> 100,28.5,> 100 µM,16.4 µM,95.9 µM,28.9 µM,> 100 µM,19.4 µM,91.7 µM,22.2 µM,> 100 µM,,
CCN(CC)CCNc1ccc(CO)c2sc3ccccc3c(=O)c12,,,,,4.53 µM and 7.78 µM and 16.7 µM,24.1 µM [middle of 4 runs],2.51 µM and 1.59 µM,,1.74,4.48 µM and 44.8 µM and 26.1 µM,4.27 µM and 14.4 µM and 2.33 µM,17.7 µM and 29.1 µM and 9.2 µM,2.99 µM and 4.29 µM and 7.25 µM,17 µM and 17.3 µM and 21 µM,2.49 µM and 7.63 µM,18.9 µM [middle of 4 runs],3.14 µM and 13.6 µM,16.4 µM and 22.7 µM and 29.3 µM,1.99 µM and 12.4 µM and 2.03 µM,4.2 µM and 25.1 µM and 4.3 µM
C=C(C)[C@@H]1CC[C@]2(C)[C@H](CC=C3[C@@H]4CC(C)(C)CC[C@]4(C(=O)OC)CC[C@]32C)[C@@]1(C)CC/C(N)=N/O,1.69,3.33,,,1.8 µM,3.95 µM,1.95 µM,6.57,,,,,2.09 µM,5.42 µM,2.16 µM,7.23 µM,2.84 µM,10.1 µM,1.78 µM,3.86 µM
CC(C)NCCCNC1=C(Cl)C(=O)c2ccccc2C1=O,1.97,3.69,1.87,3.96,16.5 µM,31.8 µM,3.48 µM,19.2,12.8,27.6 µM,10.3 µM,22.4 µM,12 µM,28.6 µM,,,1.88 µM,4.56 µM,1.86 µM,3.49 µM
